From ChEMBL document CHEMBL3259721, “Base substituted 5'-O-(N-isoleucyl)sulfamoyl nucleoside analogues as potential antibacterial agents” (Bioorg Med Chem, 2014)
Active and inactive are the calls of the source. The calls are words filed in the database; no cut-off is given here. Peptide text beside a SMILES is read from it. * marks the point of attachment. X6 = CC[C@H](C)[C@H](N*)C(=O)NS(=O)(=O)OC[C@H]1O[C@@H](n2cnc3c([N+](=O)[O-])cccc32)[C@H](O)[C@@H]1O; X7 = CC[C@H](C)[C@H](N*)C(=O)NS(=O)(=O)OC[C@H]1O[C@@H](n2cnc3c(=O)[nH]c(N)nc32)[C@H](O)[C@@H]1O; X3 = CC[C@H](C)[C@H](N*)C(=O)NS(=O)(=O)OC[C@H]1O[C@@H](n2ccc(=O)[nH]c2=O)[C@H](O)[C@@H]1O; X1 = CC[C@H](C)[C@H](N*)C(=O)NS(=O)(=O)OC[C@H]1O[C@@H](n2cnc3c(N)cccc32)[C@H](O)[C@@H]1O; X2 = CC[C@H](C)[C@H](N*)C(=O)NS(=O)(=O)OC[C@H]1O[C@@H](n2cnc3c(N)ncnc32)[C@H](O)[C@@H]1O; X4 = CC[C@H](C)[C@H](N*)C(=O)NS(=O)(=O)OC[C@H]1O[C@@H](n2cnc3c(O)ncnc32)[C@H](O)[C@@H]1O; X5 = CC[C@H](C)[C@H](N*)C(=O)NS(=O)(=O)OC[C@H]1O[C@@H](n2ccc(N)nc2=O)[C@H](O)[C@@H]1O; For = O=C*

How the values were obtained:
[1] = target: Isoleucine--tRNA ligase (Escherichia coli K-12) (UniProt P00956); experiment: Inhibition of Isoleucine-tRNA synthetase in wild type Escherichia coli S30 cell extract assessed as inhibition of [C14]isoleucine incorporation in tRNA under in vitro aminoacylation conditions at 3.13 uM by liquid scintillation counting
Escherichia coli [2] = experiment: Antibacterial activity against wild type Escherichia coli assessed as growth inhibition in Luria broth at 5 mM after 8 to 18 hrs by disc diffusion method; type: functional, organism-based
Escherichia coli [3] = experiment: Antibacterial activity against wild type Escherichia coli assessed as growth inhibition in Luria broth at 5 mM after 8 to 18 hrs by broth dilution test; type: functional, organism-based
Escherichia coli [4] = experiment: Antibacterial activity against wild type Escherichia coli Ara-Yej (BW39758) assessed as growth inhibition in Luria broth at 10 to 60 uM after 8 hrs by broth dilution test; type: functional, organism-based

Chain of Isoleucine--tRNA ligase (Escherichia coli K-12) (P00956 whole entry, the tested form may be a part): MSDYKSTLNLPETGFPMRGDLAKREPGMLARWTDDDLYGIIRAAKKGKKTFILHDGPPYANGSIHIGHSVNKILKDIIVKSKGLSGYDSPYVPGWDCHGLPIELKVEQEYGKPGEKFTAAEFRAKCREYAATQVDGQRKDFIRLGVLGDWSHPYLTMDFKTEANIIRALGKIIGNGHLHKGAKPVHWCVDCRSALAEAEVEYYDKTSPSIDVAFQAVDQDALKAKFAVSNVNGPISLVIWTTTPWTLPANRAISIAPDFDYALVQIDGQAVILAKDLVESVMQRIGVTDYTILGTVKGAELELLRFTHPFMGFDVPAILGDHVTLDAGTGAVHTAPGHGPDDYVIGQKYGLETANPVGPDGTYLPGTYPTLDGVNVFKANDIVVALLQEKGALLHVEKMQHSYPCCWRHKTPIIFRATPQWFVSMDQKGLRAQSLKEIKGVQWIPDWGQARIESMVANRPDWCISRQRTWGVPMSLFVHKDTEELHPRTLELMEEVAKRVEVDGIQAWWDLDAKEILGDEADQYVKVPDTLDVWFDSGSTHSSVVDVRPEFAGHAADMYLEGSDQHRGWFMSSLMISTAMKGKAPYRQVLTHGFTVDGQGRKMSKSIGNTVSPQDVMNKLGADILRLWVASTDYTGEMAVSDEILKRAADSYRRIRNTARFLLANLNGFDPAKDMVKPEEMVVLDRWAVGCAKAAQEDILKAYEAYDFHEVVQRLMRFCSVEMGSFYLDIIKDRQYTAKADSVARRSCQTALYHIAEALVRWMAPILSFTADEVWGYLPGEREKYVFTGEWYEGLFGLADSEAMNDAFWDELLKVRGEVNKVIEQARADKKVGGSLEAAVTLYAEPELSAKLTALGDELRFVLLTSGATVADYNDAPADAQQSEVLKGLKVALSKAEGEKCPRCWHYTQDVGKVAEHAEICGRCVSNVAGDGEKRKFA

SMILES	inhibition [1]	growth inhibition (GI) (Escherichia coli [2])	growth inhibition (GI) (Escherichia coli [3])	growth inhibition (GI) (Escherichia coli [4])
CC[C@H](C)[C@H](N)C(=O)NS(=O)(=O)OC[C@H]1O[C@@H](n2cnc3c(N)cccc32)[C@H](O)[C@@H]1O	Active	inactive	–	–
CC[C@H](C)[C@H](NC(=O)[C@H](C)NC(=O)[C@H](CC(N)=O)NC(=O)CNC(=O)[C@@H](NC(=O)[C@H](CCCNC(=N)N)NC(=O)[C@H](CCSC)NC=O)[C@@H](C)O)C(=O)NS(=O)(=O)OC[C@H]1O[C@@H](n2cnc3c(N)cccc32)[C@H](O)[C@@H]1O (For-MRTGNA-X1)	–	–	inactive	Active
CC[C@H](C)[C@H](NC(=O)[C@H](C)NC(=O)[C@H](CC(N)=O)NC(=O)CNC(=O)[C@@H](NC(=O)[C@H](CCCNC(=N)N)NC(=O)[C@H](CCSC)NC=O)[C@@H](C)O)C(=O)NS(=O)(=O)OC[C@H]1O[C@@H](n2cnc3c([N+](=O)[O-])cccc32)[C@H](O)[C@@H]1O (For-MRTGNA-X6)	–	–	inactive	–
CC[C@H](C)[C@H](NC(=O)[C@H](C)NC(=O)[C@H](CC(N)=O)NC(=O)CNC(=O)[C@@H](NC(=O)[C@H](CCCNC(=N)N)NC(=O)[C@H](CCSC)NC=O)[C@@H](C)O)C(=O)NS(=O)(=O)OC[C@H]1O[C@@H](n2ccc(=O)[nH]c2=O)[C@H](O)[C@@H]1O (For-MRTGNA-X3)	–	–	inactive	inactive
CC[C@H](C)[C@H](NC(=O)[C@H](C)NC(=O)[C@H](CC(N)=O)NC(=O)CNC(=O)[C@@H](NC(=O)[C@H](CCCNC(=N)N)NC(=O)[C@H](CCSC)NC=O)[C@@H](C)O)C(=O)NS(=O)(=O)OC[C@H]1O[C@@H](n2cnc3c(O)ncnc32)[C@H](O)[C@@H]1O (For-MRTGNA-X4)	–	–	inactive	Active
CC[C@H](C)[C@H](N)C(=O)NS(=O)(=O)OC[C@H]1O[C@@H](n2cnc3c(=O)[nH]c(N)nc32)[C@H](O)[C@@H]1O	Active	inactive	–	–
CC[C@H](C)[C@H](NC(=O)[C@H](C)NC(=O)[C@H](CC(N)=O)NC(=O)CNC(=O)[C@@H](NC(=O)[C@H](CCCNC(=N)N)NC(=O)[C@H](CCSC)NC=O)[C@@H](C)O)C(=O)NS(=O)(=O)OC[C@H]1O[C@@H](n2cnc3c(N)ncnc32)[C@H](O)[C@@H]1O (For-MRTGNA-X2)	–	–	inactive	Active
CC[C@H](C)[C@H](N)C(=O)NS(=O)(=O)OC[C@H]1O[C@@H](n2cnc3c(O)ncnc32)[C@H](O)[C@@H]1O	Active	inactive	–	–
CC[C@H](C)[C@H](N)C(=O)NS(=O)(=O)OC[C@H]1O[C@@H](n2ccc(N)nc2=O)[C@H](O)[C@@H]1O	Active	inactive	–	–
CC[C@H](C)[C@H](NC(=O)[C@H](C)NC(=O)[C@H](CC(N)=O)NC(=O)CNC(=O)[C@@H](NC(=O)[C@H](CCCNC(=N)N)NC(=O)[C@H](CCSC)NC=O)[C@@H](C)O)C(=O)NS(=O)(=O)OC[C@H]1O[C@@H](n2ccc(N)nc2=O)[C@H](O)[C@@H]1O (For-MRTGNA-X5)	–	–	inactive	–
CC[C@H](C)[C@H](N)C(=O)NS(=O)(=O)OC[C@H]1O[C@@H](n2cnc3c([N+](=O)[O-])cccc32)[C@H](O)[C@@H]1O	Active	inactive	–	–
CC[C@H](C)[C@H](N)C(=O)NS(=O)(=O)OC[C@H]1O[C@@H](n2ccc(=O)[nH]c2=O)[C@H](O)[C@@H]1O	Active	inactive	–	–
CC[C@H](C)[C@H](N)C(=O)NS(=O)(=O)OC[C@H]1O[C@@H](n2cnc3c(N)ncnc32)[C@H](O)[C@@H]1O	Active	inactive	–	–
CC[C@H](C)[C@H](NC(=O)[C@H](C)NC(=O)[C@H](CC(N)=O)NC(=O)CNC(=O)[C@@H](NC(=O)[C@H](CCCNC(=N)N)NC(=O)[C@H](CCSC)NC=O)[C@@H](C)O)C(=O)NS(=O)(=O)OC[C@H]1O[C@@H](n2cnc3c(=O)[nH]c(N)nc32)[C@H](O)[C@@H]1O (For-MRTGNA-X7)	–	–	inactive	–
